Legend:
Type in all cases: functional
Onchocerca lienalis [1] = test: MMV: Percent motility assay at a compound concentration of 3.1e-6 M. Activity score legend: 3: Active, 2: Moderately active; 1: Inactive, 0: Toxic; details: at 3.1 µM
Onchocerca lienalis [2] = test: MMV: Percent motility assay at a compound concentration of 1.25e-5 M. Activity score legend: 3: Active, 2: Moderately active; 1: Inactive, 0: Toxic; details: at 12.5 µM
Onchocerca lienalis [3] = test: MMV: Percent motility assay at a compound concentration of 1.9e-7 M. Activity score legend: 3: Active, 2: Moderately active; 1: Inactive, 0: Toxic; details: at 0.19 µM
Onchocerca lienalis [4] = test: MMV: Percent motility assay at a compound concentration of 7.8e-7 M. Activity score legend: 3: Active, 2: Moderately active; 1: Inactive, 0: Toxic; details: at 0.78 µM

Structure (SMILES)	Motility (Onchocerca lienalis [1])	Motility (Onchocerca lienalis [2])	Motility (Onchocerca lienalis [3])	Motility (Onchocerca lienalis [4])
CN(C)CCCNc1c2ccccc2nc2ccccc12	100%	100%	100%	100%
COc1ccc(-c2c(C)nn3c(N)c(C#N)cnc23)cc1OC	100%	100%	100%	100%
CSC1=NC(=Nc2c(C)cccc2C)C2(CCC(C(C)(C)C)CC2)N1c1ccc(Cl)cc1 (configuration not stated)	100%	100%	100%	100%
Cc1cc(C)cc(Nc2cc(C)nc3nc(C(F)(F)F)nn23)c1	100%	100%	100%	100%
O=C(NCC(c1ccsc1)N1CCCCCC1)c1ccc(C(F)(F)F)cc1 (configuration not stated)	100%	100%	100%	100%
COc1ccc(-c2cc3c(SCC(=O)Nc4cc(C(F)(F)F)ccc4Cl)nccn3n2)cc1	100%	100%	100%	100%
Cc1ccc(-c2cc3c(SCC(=O)Nc4cc(C(F)(F)F)ccc4Cl)nccn3n2)cc1	100%	100%	100%	100%
CCCCCC(=O)N1c2ccccc2N=C2CC(c3ccc(OC)c(OC)c3)CC(O)=C2C1c1ccc(C(F)(F)F)cc1 (configuration not stated)	100%	100%	100%	100%
Cc1cc(NCCN2CCCCC2)c2ccc3ccccc3c2n1	100%	100%	100%	100%
COc1ccc(-c2nc(NC(=O)CS(=O)(=O)c3ccc(F)cc3)sc2C)cc1	100%	100%	100%	100%
O=C(O)C1Cc2c([nH]c3ccccc23)C(c2ccc(Cl)cc2Cl)N1 (configuration not stated)	100%	100%	100%	100%
Cc1ccc(N2C(=O)C3C(C2=O)C2(c4ccccc4)C(=O)C3(c3ccccc3)C(c3ccccc3)=C2c2ccccc2)cc1 (configuration not stated)	100%	100%	100%	100%
CCc1c(C)c(=N)c2ccccc2n1C.I	100%	100%	100%	100%
COc1cccc(NC(=O)[C@H](C(C)C)n2c(=O)[nH]c3ccccc3c2=O)c1	100%	100%	100%	100%
CCOC(=O)c1cn(CC)c2cc(N(C)CCc3ccc(OC)c(OC)c3)c(F)cc2c1=O	100%	100%	100%	100%
CC(C)(C)c1ccc(O)c(CNC2CCCCC2)c1	100%	100%	100%	100%
O=[N+]([O-])c1ccc(C=NNc2nc3ccccc3[nH]2)cc1	100%	100%	100%	100%
COc1ccc(C2=C(c3ccc(OC)cc3)C3(c4ccccc4)C(=O)C2(c2ccccc2)C2C(=O)N(c4ccc(C)cc4)C(=O)C23)cc1 (configuration not stated)	100%	100%	100%	100%
CCOC(=O)C1=C(c2ccccc2)N=c2sc(=Cc3cc(C)n(-c4ccc(F)cc4)c3C)c(=O)n2C1c1cccc(OC)c1OC (configuration not stated)	100%	100%	100%	100%

Structure (SMILES)	Motility (Onchocerca lienalis [1])	Motility (Onchocerca lienalis [2])	Motility (Onchocerca lienalis [3])	Motility (Onchocerca lienalis [4])
CCC1(C)CC(CCNCc2ccccc2O)(c2ccc(C)cc2)CCO1 (configuration not stated)	100%	100%	100%	100%
Cc1cc(Nc2ccc(C)c(Cl)c2)n2nc(C(F)(F)F)nc2n1	100%	100%	100%	100%
Fc1ccc2[nH]c3c(NCCCN4CCOCC4)ncnc3c2c1	100%	100%	100%	100%
COc1ccc(C=C2SC(=N)N(c3ccccc3OC)C2=O)cc1	100%	100%	100%	100%
Cc1cccc(Nc2nc(N)c3ccccc3n2)c1.Cl	100%	100%	100%	100%
CCn1c(CN2CCN(Cc3ccccc3)CC2)nc2cc(NC(=O)c3cccs3)ccc21	100%	100%	100%	100%
COc1ccccc1CNC(=O)CCn1c(=O)[nH]c2ccccc2c1=O	100%	100%	100%	100%
COc1cc(OC)c(N(C)C(=O)c2cc3c(s2)-c2ccccc2S(=O)(=O)C3)cc1Cl	100%	100%	100%	100%
Cl.Oc1ccccc1CNCC12CC3CC(CC(C3)C1)C2	100%	100%	100%	100%
CNCCCNc1ccnc2cc(Cl)ccc12	100%	100%	100%	100%
COc1ccccc1CNC(=O)CCn1c(=O)[nH]c2ccsc2c1=O	100%	100%	100%	100%
COc1ccc(Br)cc1C1Nc2ccc3ccccc3c2C2=C1C(=O)CC(c1ccccc1)C2 (configuration not stated)	100%	66.66%	100%	100%
Cc1cc(C=C2SC(=Nc3ccccc3)N(C3CCCC3)C2=O)c(C)n1-c1ccc(Cl)cc1	100%	100%	100%	100%
CC1CCN(Cc2ccc(NC(=O)c3cc4ccc5cccnc5c4[nH]3)cc2)CC1	100%	100%	100%	100%
CCc1ccc(Nc2cc(C)c3ccc(O)cc3n2)cc1.Cl	100%	66.66%	100%	100%
CSc1ccccc1C(=O)Nc1nc(-c2ccccn2)cs1	100%	33.33%	100%	100%
COc1ccc(C(C)=O)cc1N1C(=O)C2C(C1=O)C1(c3ccccc3)C(=O)C2(c2ccccc2)C(c2ccc(C)cc2)=C1c1ccc(C)cc1 (configuration not stated)	100%	100%	100%	100%
CCCc1c(CC)c(=N)c2ccccc2n1C	100%	100%	100%	100%
CCOC(=O)c1cnc2c(C)cc(C)cc2c1Nc1ccc(OC)c(OC)c1	100%	100%	100%	100%
